Calls of active or inactive are those of the source.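 Rule for the calls: active = Compounds that kill half the cells at a concentration of 5 micromolar or below, from the fitted or estimated CC50; inactive = CC50 above 5 micromolar.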
system: Jurkat E6.1 viability, ATP luminescence, 48 h; test: viability loss in Jurkat T cells – cell-based, ATP luminescence, 48 h, 60K MLSMR, cytotoxicity control, dose response (AID 464)

Which CC50 does the source give for `Cc1cc(NC(=O)CSc2nc(-c3ccco3)cc(C(F)(F)F)n2)no1` here?
The CC50 was 0.233 µM.

For `Cc1cc(C)nc(NC(=O)Nc2ccccc2C(F)(F)F)n1`, which CC50 is on record?
The CC50 was > 4.4 µM (inactive).

With `O=C(NCc1cccnc1)NC1(C(F)(F)F)Oc2ccc(Cl)cc2O1` (stereo not given) as the compound, how does the CC50 read?
The CC50 was 8.08 µM (inactive).

How did the CC50 turn out when `Oc1c(CN2CCN(c3ccccn3)CC2)cc(Cl)c2cccnc12` was run?
Its CC50 is 2.85 µM.

For `CS(=O)(=O)N1CCc2cc(-c3csc(NC(=O)Cc4cccs4)n3)ccc21`, which CC50 is on record?
Its CC50 is 19.1 µM (inactive).

How did the CC50 turn out when `COc1ccc(NS(=O)(=O)c2cc(OC)ccc2NC(=O)c2cc(C)oc2C)cc1` was run?
Its CC50 is 2.25 µM.

How did the CC50 turn out when `Cc1oc(-c2ccccc2Cl)nc1CSCC(=O)N1CCCC1` was run?
Its CC50 is > 40 µM (inactive).

`CCOc1ccc(N(CC)S(=O)(=O)c2ccc3c(c2)oc(=O)n3C)cc1` was tested. Which CC50 did it give?
The CC50 was 2.94 µM.

`CN(CCCC(=O)Nc1ccncc1)S(=O)(=O)c1ccc(Cl)cc1` was tested. Which CC50 did it give?
Its CC50 is 5.53 µM (inactive).

For `CCOC(=O)c1ccc(Oc2cc(C)nc(SC)n2)cc1`, which CC50 is on record?
The CC50 was 7.92 µM (inactive).

`CCc1c(C)nc2ncnn2c1NCCc1ccc(OC)cc1` was tested. Which CC50 did it give?
Its CC50 is 0.901 µM.

Which CC50 does the source give for `Clc1ccc(OCCN2CCN(c3ncnc4sccc34)CC2)cc1` here?
Its CC50 is 0.938 µM.

Which CC50 does the source give for `N#Cc1nc(N2CCCCC2)nc(N2CCOCC2)n1` here?
Its CC50 is 12.9 µM (inactive).

With `Oc1c(CN2CCOCC2)cc(COCc2ccccc2)c2cccnc12` as the compound, how does the CC50 read?
The CC50 was 2.65 µM.

How did the CC50 turn out when `CCCN1C(=O)c2ccccc2NC1c1ccc(OC)cc1O` (stereo not given) was run?
The CC50 was > 40 µM (inactive).

With `CCn1c(C)nc2cc(-c3nc4n(n3)Cc3ccccc3-4)ccc21` as the compound, how does the CC50 read?
Its CC50 is 2.57 µM.

With `CCCCNc1ncnc2c1cnn2-c1ccc(Cl)cc1` as the compound, how does the CC50 read?
Its CC50 is 2.56 µM.

For `Nc1c(C(=O)NCc2ccccc2)nnn1Cc1cccc(Cl)c1`, which CC50 is on record?
Its CC50 is 4.49 µM.

With `CC(=O)c1c(C)[nH]c(C(=O)OCCCCN2C(=O)c3ccccc3C2=O)c1C` as the compound, how does the CC50 read?
The CC50 was > 40 µM (inactive).

How did the CC50 turn out when `COc1cc(NS(=O)(=O)c2ccc(C)cc2C)cc(OC)c1OC` was run?
The CC50 was 9.46 µM (inactive).

For `COc1ccccc1N1CCN(c2nc(C)nc3c2oc2ccccc23)CC1`, which CC50 is on record?
Its CC50 is 1.04 µM.

Which CC50 does the source give for `CCOc1ccccc1CN(Cc1ccco1)S(=O)(=O)c1ccc(-n2cnnn2)c(OC)c1` here?
Its CC50 is 4.22 µM.

How did the CC50 turn out when `CCCOc1ccccc1C1CC(=O)NC2=C1C(=O)CCC2` (stereo not given) was run?
Its CC50 is 1.52 µM.

`CC(C)OCCCNc1ncnc2c1[nH]c1ccccc12` was tested. Which CC50 did it give?
Its CC50 is 4.91 µM.

For `CCCCOc1ncnc2c1[nH]c1ccc(F)cc12`, which CC50 is on record?
Its CC50 is > 40 µM (inactive).

For `COc1ccc(-c2nnc(NC(=O)c3ccc(S(=O)(=O)N4COCC4(C)C)cc3)o2)cc1`, which CC50 is on record?
Its CC50 is 22.7 µM (inactive).

With `CC(=O)Nc1ccccc1OCC(=O)c1cc(C)n(Cc2cccs2)c1C` as the compound, how does the CC50 read?
Its CC50 is 0.16 µM.

Which CC50 does the source give for `Cc1cccc(-n2c(O)c(C=Nc3ccccc3N)c(=O)[nH]c2=O)c1` here?
The CC50 was > 13 µM (inactive).

`CCOc1ccccc1N1CC(O)=C(c2nc3ccccc3s2)C1=N` was tested. Which CC50 did it give?
Its CC50 is 1.84 µM.

For `Cc1ccc(S(=O)(=O)Nc2cccc3ncccc23)s1`, which CC50 is on record?
The CC50 was 10.3 µM (inactive).

With `CN(C)CC(C(=O)c1ccccc1)c1ccccc1` (stereo not given) as the compound, how does the CC50 read?
Its CC50 is 3.91 µM.

For `CCc1ccc2oc(-c3cc(N)cc(C)c3O)nc2c1`, which CC50 is on record?
The CC50 was > 13 µM (inactive).

With `CC(=O)Nc1ccccc1N(C)S(=O)(=O)c1ccc(C)cc1` as the compound, how does the CC50 read?
Its CC50 is 4.57 µM.

How did the CC50 turn out when `Cc1ccsc1C(=O)Nc1nnc(-c2ccco2)o1` was run?
The CC50 was 24.2 µM (inactive).

How did the CC50 turn out when `COc1cccc(-c2cc(C(=O)Nc3cccc(O)c3)no2)c1` was run?
Its CC50 is > 40 µM (inactive).

How did the CC50 turn out when `COc1ccc(NC(=O)c2cc(-c3ccccc3OC)on2)cc1` was run?
The CC50 was 1.85 µM.

Which CC50 does the source give for `CN(CC1CCCO1)S(=O)(=O)c1ccc(C(=O)Nc2nc(-c3ccccn3)cs2)cc1` (stereo not given) here?
Its CC50 is 10.5 µM (inactive).

`O=C(Cn1cnc2c(cnn2-c2ccccc2)c1=O)NCc1ccccc1` was tested. Which CC50 did it give?
The CC50 was 9.12 µM (inactive).

`COc1cc(C2C(C#N)=C(C)NC3=C2C(=O)c2ccccc23)cc(OC)c1OC` (stereo not given) was tested. Which CC50 did it give?
The CC50 was 3.48 µM.

How did the CC50 turn out when `CCN(CC)S(=O)(=O)c1cccc(C(=O)Nc2ccccc2)c1` was run?
Its CC50 is 18.3 µM (inactive).

With `COc1cccc(C(=O)/C=C/Nc2cc(C)ccc2O)c1` as the compound, how does the CC50 read?
Its CC50 is 2.95 µM.

With `NS(=O)(=O)c1ccc(CCNc2ncnc3sccc23)cc1` as the compound, how does the CC50 read?
The CC50 was 3.37 µM.

For `COc1cccc(C2=CC(c3cccc(OC)c3OC)n3nnnc3N2)c1` (stereo not given), which CC50 is on record?
Its CC50 is 16.5 µM (inactive).

How did the CC50 turn out when `COC(=O)C1=C(N)Oc2cc(N(C)C)ccc2C1c1ccccc1OC` (stereo not given) was run?
Its CC50 is 2.6 µM.

For `CCOC(=O)C1CCN(C(c2cccnc2)c2c(NC(=O)c3ccco3)sc(C)c2C)CC1` (stereo not given), which CC50 is on record?
The CC50 was > 40 µM (inactive).

How did the CC50 turn out when `COc1ccc(CNC(=O)c2cc3c(C)nc4ccccc4c3o2)c(OC)c1` was run?
Its CC50 is > 40 µM (inactive).

Which CC50 does the source give for `CCOC(=O)C(C)Oc1cccc2c(=O)n(CC(=O)NCc3ccc4c(c3)OCO4)ccc12` (stereo not given) here?
The CC50 was 3.9 µM.

Which CC50 does the source give for `COc1ccc(C2=NOC(C(=O)NCc3ccc(F)cc3)C2)cc1OC` (stereo not given) here?
Its CC50 is 0.318 µM.

For `O=S1(=O)C=C(Sc2nc3ccccc3s2)c2ccccc21`, which CC50 is on record?
The CC50 was 0.647 µM.

For `Nc1nc(-c2ccccc2)cc(N2CCCCC2)n1`, which CC50 is on record?
The CC50 was 0.877 µM.

`CCOC(=O)Nc1c(C(=O)OC)[nH]c2cc(OC)ccc12` was tested. Which CC50 did it give?
The CC50 was 7.94 µM (inactive).

Which CC50 does the source give for `Nc1nnnn1/N=C/C(Br)=C/c1ccccc1` here?
The CC50 was > 13 µM (inactive).

Which CC50 does the source give for `O=C(CN1CCC(c2nc3ccccc3s2)CC1)NCc1cccs1` here?
Its CC50 is 18 µM (inactive).

`N#CC1=C(N)Oc2cc(N)ccc2C1C1CCCCC1` (stereo not given) was tested. Which CC50 did it give?
Its CC50 is 2.49 µM.

With `O=C(C1CC1)N1CCC(c2nc(-c3ccc(S(=O)(=O)NCC4CCCO4)cc3)no2)CC1` (stereo not given) as the compound, how does the CC50 read?
The CC50 was 9.95 µM (inactive).

Source: PubChem BioAssay AID464 (The Scripps Research Institute Molecular Screening Center, 2006)
